In brackets after ≈: the same amount, converted by molar mass. Read-outs that look alike come from different tables or passages of the source.
What was measured:
Assay type in all cases: cell-based
[1] = system: Propionibacterium acnes P37 E⊕; test: Minimum inhibiting concentration (MIC) by dilution method, P. acnes P37 E⊕ (erythromycin-sensitive population); conditions: Cutibacterium acnes
Source text: (§1) The activity of retinoic esters of D-desosamines has been studied by the dilution method to determine the minimum inhibiting concentration (MIC). This method is described and employed by G. A. Denys et al, Antimicrobial Agents and Chemotherapy (1983) 23, 335-337 and J. J. Leyden et al, J.Am.Acad. Dermatol. (1983) 8 (1) 41-5, by using as the Propionibacterium acnes strain, strain P37 furnished by Cunliffe and Holland.
(§2) On the other hand, after 8 successive sub-cultures in the same medium (RCM* 19/20, DMSO 1/20 by volume) with the view of obtaining a progressive stabilization of this strain in this medium, a progressive resistance to erythromycin was manifested in the following form:
(§3) after spreading a standardized inoculum (DO=1.8 at 450 nm) on a gelose medium (RCM+furazolidone), in a Petri dish, a 9 mm diameter disc is deposited at its center. On the disc, 50 μg of erythromycin (in solution in DMSO) are deposited.
(§4) The two types of colonies are then retained by stripping of the gelose medium (sterilized platinum loop):
(2) at 1 cm beyond the periphery of the inhibition zone, there are stripped off strains called P37 E⊕.
(§5) After isolation and culturing, the P37 E⊕ and P37 E⊖ strains effectively show very different sensitivities to erythromycin as illustrated by the following MIC values:
(§6) The minimum concentration (MIC), expressed in μg/ml of the retinoic esters of D-desosamine tested vis-a-vis strains of Propionibacterium acnes P37, P37 E⊕ and P37 E⊖ and staphilococcus epidermis ATCC 12228, is reported in the following table: […]

[2] = system: Propionibacterium acnes P37; test: Minimum inhibiting concentration (MIC) by dilution method, P. acnes strain P37
Source text: as §1, §6

[3] = system: Propionibacterium acnes P37 E⊖; test: Minimum inhibiting concentration (MIC) by dilution method, P. acnes P37 E⊖ (erythromycin-resistant population); conditions: Cutibacterium acnes, P37E.CRCLBAR.
Source text: as §1, §2, §3, §4
(1) at the interior of the inhibition zone there are stripped off strains, called P37 E⊖ by reason of their apparent resistance to erythromycin.
as §5, §6

[4] = system: staphilococcus epidermis ATCC 12228; test: Minimum inhibiting concentration (MIC) by dilution method, staphilococcus epidermis ATCC 12228; conditions: read-out: minimum concentration (MIC), TABLE I
Source text: as §1, §6

[5] = system: Propionibacterium acnes P37 E⊖; test: IC 50 (50% survivors among the population at constant culturing time), P37 E⊖; conditions: Cutibacterium acnes, P37E.CRCLBAR., read-out: IC 50 (inhibiting concentration at 50%)
Source text: (§7) This phenomenon is confirmed by the study of the IC 50 (inhibiting concentration at 50% which represents the concentration of erythromycin where, at a constant culturing time, 50% survivors among the population are found

[6] = system: Propionibacterium acnes P37; test: IC 50 (50% survivors among the population at constant culturing time), P37; conditions: Cutibacterium acnes, P37, read-out: IC 50 (inhibiting concentration at 50%)
Source text: as §7

[7] = system: Propionibacterium acnes strain P37; test: Disc inhibition zone on gelose medium; conditions: Cutibacterium acnes, P37, 144 h; 50 μg erythromycin on 9 mm disc; 6 days at 36 C, anaerobic; RCM+furazolidone; after 8 sub-cultures; read-out: inhibition zone of the growth of the strain (total diameter)
Experimental: as §2, §3
After 6 days at 36.C in an anaerobic medium (GAS-PAK, B.B.L. system) an inhibition zone of the growth of the strain is clearly visible (total diameter =42 mm), the majority of the colonies being situated at the periphery of the inhibition zone.

[8] = system: Propionibacterium acnes P37 E⊕; test: IC 50 (50% survivors among the population at constant culturing time), P37 E⊕; conditions: Cutibacterium acnes, read-out: IC 50 (inhibiting concentration at 50%)
Source text: as §7

[9] = P37E.SYM., P37 E⊕, read-out: minimum concentration (MIC), TABLE I
[10] = Cutibacterium acnes, P37, read-out: minimum concentration (MIC), TABLE I
[11] = read-out: minimum concentration (MIC), TABLE I
[12] = Cutibacterium acnes, P37; read-out: minimum concentration (MIC), TABLE I

Compound | MIC [1, 9] | MIC [3, 11] | MIC ([4]; ATCC 12228) | MIC [2, 12] | also measured
CCCCOC1O[C@H](C)C[C@H](N(C)C)[C@H]1OC(=O)\C=C(C)/C=C/C=C(C)/C=C/C1=C(C)CCCC1(C)C (stereo partly drawn) [Compound 1, O-retinoyl (13 cis)-2-O-butyl-1-α,β-D-desosamine] | 21 µg/mL (≈ 40.9 µM) | 10.5 µg/mL (≈ 20.4 µM) | 18.5 µg/mL (≈ 36 µM) |  | MIC [2, 10]: 10.5 µg/mL (≈ 20.4 µM)
CCCCOC1O[C@H](C)C[C@H](N(C)C)[C@H]1OC(=O)/C=C(C)/C=C/C=C(C)/C=C/C1=C(C)CCCC1(C)C (stereo partly drawn) [Compound 2, O-retinoyl (all trans)-2-O-butyl-1-α-β-D-desosamine] | 25 µg/mL (≈ 48.7 µM) | 9 µg/mL (≈ 17.5 µM) | 3.5 µg/mL (≈ 6.81 µM) | 15 µg/mL (≈ 29.2 µM) | 
CCCCOC1O[C@H](C)C[C@H](N(C)C)[C@H]1OC(=O)/C=C(C)/C=C/C=C(C)/C=C/c1c(C)cc(OC)c(C)c1C (stereo partly drawn) [Compound 5, O-etretinoyl (all trans)-2-O-butyl-1-α,β-D-desosamine] | 6 µg/mL (≈ 11.1 µM) | 6 µg/mL (≈ 11.1 µM) | 6 µg/mL (≈ 11.1 µM) | 3 µg/mL (≈ 5.56 µM) | 
CCCCO[C@H]1O[C@H](C)C[C@H](N(C)C)[C@H]1OC(=O)/C=C(C)/C=C/C=C(C)/C=C/c1c(C)cc(OC)c(C)c1C [Compound 6, O-etretinoyl (all trans)-2-O-butyl-1-α-D-desosamine] | 4.3 µg/mL (≈ 7.97 µM) | 2.1 µg/mL (≈ 3.89 µM) | 1.5 µg/mL (≈ 2.78 µM) | 19 µg/mL (≈ 35.2 µM) | 
CCCCO[C@@H]1O[C@H](C)C[C@H](N(C)C)[C@H]1OC(=O)/C=C(C)/C=C/C=C(C)/C=C/c1c(C)cc(OC)c(C)c1C [Compound 7, O-etretinoyl (all trans)-2-O-butyl-1-β-D-desosamine] | 40 µg/mL (≈ 74.1 µM) | 14.5 µg/mL (≈ 26.9 µM) | 2.3 µg/mL (≈ 4.26 µM) | 5.2 µg/mL (≈ 9.63 µM) | 
CCCCOC1O[C@H](C)C[C@H](N(C)C)[C@H]1O (stereo partly drawn) [O-butyl-1-α,β-D-desosamine, reference compound] | > 100 µg/mL | > 110 µg/mL | > 100 µg/mL | > 100 µg/mL | 
CO[C@H]1O[C@H](COC(=O)\C=C(C)/C=C/C=C(C)/C=C/C2=C(C)CCCC2(C)C)[C@@H](O)[C@H](O)[C@H]1O [O-retinoyl (13 cis)-6-O-methyl-1-α-D-glucopyrannose, reference compound] | > 45 µg/mL | > 45 µg/mL | > 45 µg/mL | > 45 µg/mL | 
CC[C@H]1OC(=O)[C@H](C)[C@@H](O[C@H]2C[C@@](C)(OC)[C@@H](O)[C@H](C)O2)[C@H](C)[C@@H](O[C@@H]2O[C@H](C)C[C@H](N(C)C)[C@H]2O)[C@](C)(O)C[C@@H](C)C(=O)[C@H](C)[C@@H](O)[C@]1(C)O [erythromycin] |  |  |  |  | MIC [1]: 0.78 µg/mL (≈ 1.06 µM); IC50 [5]: 100 µg/mL (≈ 136 µM); IC50 [6]: 50 µg/mL (≈ 68.1 µM); MIC ([2]; Cutibacterium acnes, P37): 0.78 µg/mL (≈ 1.06 µM); zone of inhibition at 50 µg/disc [7]: 42 mm; MIC [3]: 50 µg/mL (≈ 68.1 µM); IC50 [8]: 5 µg/mL (≈ 6.81 µM)
C[C@@H]1C[C@H](N(C)C)[C@@H](O)C(O)O1 (stereo partly drawn) [α,β-D-desosamine, reference compound] |  | > 70 µg/mL |  |  | MIC [1, 11]: > 70 µg/mL; MIC [2, 10]: > 50 µg/mL; MIC [4]: > 50 µg/mL
